According to patent US11254654B2, “Heterochromatin gene repression inhibitors” (The University of North Carolina at Chapel Hill, priority 2017, dated 2022):
Structures can show the parent of a compound that is named as a salt.

Legend:
[1] = tested on: HP1 heterochromatin pathway; assay: Small molecule high-throughput flow cytometry screen, CiA:Oct4 N118/N163 cells with rapamycin (csHP1α recruitment); assay type: cell-based, mouse; settings: 10 μM compound, + 6 nM rapamycin, 48 hrs
Description: The CiA:Oct4 recruitment system in mouse embryonic stem cells contains Gal4 and Zinc finger DNA binding arrays and a downstream nuclear eGFP gene in place of a single Oct4 allele as previously described (Hathaway et al., 2012). The CiA:Oct4 N118/N163 cell line containing viral integrations of N118 and N163 plasmids (N118-nLV EF-1α-Gal-FKBPx1-HA-PGK-Blast, N163-nLV EF-1α-HP1α (CS)-Frbx2(Frb+FrbWobb)-V5-PGK-Puro) was used for all experiments unless otherwise stated. The CiA:Oct4 N205 line containing the lentiviral construct N205 (N205-nLV EF-1α-ZFHD1-link-FKBP-HA <T2A> HP1αCS-Frbx2-V5-PGK-Blast) was used for shRNA experiments. CiA:Oct4 N118 was infected with the lentiviral construct N192 (N192-nLV Dual Promoter EF-1α-MCS-PGK-Puro HP1γ-(CS)-Frbx2(wobbmo)-V5) to yield the csHP1γ recruitment system CiA:Oct4 N118/N192. For orthogonal recruitment system, stable mESC cell line with blue fluorescent protein (BFP) reporter gene with tetracycline response elements (TRE) was generated by recombinase-mediated cassette exchange, by introducing the reporter cassette DNA in plasmid YR06 into a genetrap located on chromosome 15 at genome coordinates chr15:99941948 (Lienert et al. (2011) Nature Genetics 43(11): 1091-1097; Elling et al. (2017) Nature 550(7674): 114-118). […]
Flow cytometry was performed using an Intellicyt iQue Screener and analyzed with FlowJo software. […]

[2] = tested on: TetR-HP1; assay: Orthogonal TetR-HP1 recruitment assay (BFP reporter); assay type: cell-based, mouse; settings: 5 μM, 48 hrs, with TetR-HP1 recruitment
Description: The CiA:Oct4 recruitment system in mouse embryonic stem cells contains Gal4 and Zinc finger DNA binding arrays and a downstream nuclear eGFP gene in place of a single Oct4 allele as previously described (Hathaway et al., 2012). The CiA:Oct4 N118/N163 cell line containing viral integrations of N118 and N163 plasmids (N118-nLV EF-1α-Gal-FKBPx1-HA-PGK-Blast, N163-nLV EF-1α-HP1α (CS)-Frbx2(Frb+FrbWobb)-V5-PGK-Puro) was used for all experiments unless otherwise stated. The CiA:Oct4 N205 line containing the lentiviral construct N205 (N205-nLV EF-1α-ZFHD1-link-FKBP-HA <T2A> HP1αCS-Frbx2-V5-PGK-Blast) was used for shRNA experiments. CiA:Oct4 N118 was infected with the lentiviral construct N192 (N192-nLV Dual Promoter EF-1α-MCS-PGK-Puro HP1γ-(CS)-Frbx2(wobbmo)-V5) to yield the csHP1γ recruitment system CiA:Oct4 N118/N192. […]
TetR-HP1 cell lines were continuously grown with 1 μg/ml doxycycline to maintain an open chromatin state. […] Median BFP intensity was determined by FlowJo software analysis. […]

## COc1cc2nc(N3CCCC3)nc(N[C@H]3CCCNC3)c2cc1OC [compound 1, (S)-6,7-Dimethoxy-N-(Piperidin-3-yl)-2-(Pyrrolidin-1-yl)Quinazolin-4-Amine Trifluoroacetic Acid Salt]
[1]
  GFP expression / % GFP (+) population despite csHP1α recruitment: increased expression of GFP
[2]
  Inhibition of HP1-mediated heterochromatin formation (median BFP expression): significantly inhibit
